Here are results for 9 compounds from patent publication US8283353B2, “Fused ring compound and use thereof” (Takeda Pharmaceutical Company Limited, priority 2009, dated 2012).

Where a name gives a salt, the structure may show the parent alone.

By IC50 is commonly meant the concentration that gives 50% inhibition. Higher therefore signals lower potency.

One assay deals with T1, human AT1 receptor (Homo sapiens, UniProt P30556).
T1 construct: expressed in transfected cells; membrane fraction
T1 sequence (P30556 1-359): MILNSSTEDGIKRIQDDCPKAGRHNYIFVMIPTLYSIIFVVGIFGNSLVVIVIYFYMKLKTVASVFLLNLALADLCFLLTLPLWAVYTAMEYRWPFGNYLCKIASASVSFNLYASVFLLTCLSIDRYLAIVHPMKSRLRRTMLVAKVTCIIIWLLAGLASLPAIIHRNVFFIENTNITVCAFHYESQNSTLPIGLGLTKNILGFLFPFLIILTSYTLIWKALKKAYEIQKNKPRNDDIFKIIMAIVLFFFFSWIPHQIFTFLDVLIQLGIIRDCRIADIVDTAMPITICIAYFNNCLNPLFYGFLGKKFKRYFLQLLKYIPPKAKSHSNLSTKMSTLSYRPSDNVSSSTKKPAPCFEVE
Kind of assay: AT1 receptor antagonistic activity: [125I]-angiotensin II binding assay on human AT1 receptor-expressing CHO-K1 cellular membrane fraction. Conditions: 22.5 pM [125I]-angiotensin II, 1 hr room temperature. Summed up:
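Competition binding used radiolabelled angiotensin II on stably transfected CHO-K1 membrane fractions in Tris pH 7.4/MgCl2 buffer, optionally containing 0.3 mg/mL fatty acid-free BSA, 1 hr at room temperature. Filtration onto GF/C separated bound tracer, and nonspecific binding was measured with candesartan.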

In a further assay the target is T2, human PPARγ (Homo sapiens, UniProt P37231).
T2 construct: expressed in transfected cells
T2 sequence (P37231 1-477 isoform P37231-2): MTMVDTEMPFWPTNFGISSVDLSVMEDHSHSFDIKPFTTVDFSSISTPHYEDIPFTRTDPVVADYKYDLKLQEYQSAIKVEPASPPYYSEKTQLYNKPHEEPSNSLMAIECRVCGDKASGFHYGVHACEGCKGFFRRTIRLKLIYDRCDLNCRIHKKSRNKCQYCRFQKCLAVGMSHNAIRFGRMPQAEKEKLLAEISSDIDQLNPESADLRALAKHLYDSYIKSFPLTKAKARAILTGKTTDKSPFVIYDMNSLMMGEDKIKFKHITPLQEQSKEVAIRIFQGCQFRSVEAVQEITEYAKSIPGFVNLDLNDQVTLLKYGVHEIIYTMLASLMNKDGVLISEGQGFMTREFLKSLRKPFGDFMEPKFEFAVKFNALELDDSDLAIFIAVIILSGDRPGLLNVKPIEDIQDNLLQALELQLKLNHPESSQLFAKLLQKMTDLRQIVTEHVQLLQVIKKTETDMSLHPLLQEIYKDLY
T2 sequence (P19793 1-462 partner): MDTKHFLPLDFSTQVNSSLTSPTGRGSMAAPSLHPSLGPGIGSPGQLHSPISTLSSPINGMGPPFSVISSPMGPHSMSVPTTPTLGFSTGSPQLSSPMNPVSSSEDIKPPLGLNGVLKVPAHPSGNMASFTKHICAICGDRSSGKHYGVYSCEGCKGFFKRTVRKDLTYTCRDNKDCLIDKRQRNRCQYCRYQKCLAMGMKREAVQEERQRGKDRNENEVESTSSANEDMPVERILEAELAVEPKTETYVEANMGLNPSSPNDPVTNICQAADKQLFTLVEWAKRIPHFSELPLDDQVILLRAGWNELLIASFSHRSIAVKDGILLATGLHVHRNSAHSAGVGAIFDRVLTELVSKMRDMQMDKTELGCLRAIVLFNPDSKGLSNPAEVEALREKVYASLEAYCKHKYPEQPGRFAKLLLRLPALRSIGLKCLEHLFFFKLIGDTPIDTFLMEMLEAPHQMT
The assay can be described thus: PPARγ agonistic activity: luciferase reporter assay in PPARγ:RXRα:4ERPP/CHO-K1 cells. The class given is cell-based. Conditions: CHO-K1, test compound 10^−6 M; luciferase activity of control compound X (1 μM) = 100%, non-administration group = 0%. Summed up: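 CHO-K1 cells stably carrying hPPARγ/RXRα and a 4ERPP luciferase reporter, dosed with test compound for 1 day at 37 °C in Ham's F12 with 0.1% fatty acid-free BSA. Luciferase read by luminescence; activity given as % of 1 μM control compound X (100%) versus untreated (0%).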
A general note: In a reporter assay the amount or activity of a reporter protein is the signal.

For a further assay, the system named is Male SHRs. The assay can be described thus: Antihypertensive effect: mean blood pressure in male SHRs after oral administration. The format is in vivo, rat. Conditions: male SHR, dose 3 mg/kg, MBP measured during 24 hours. On the procedure:
Male SHRs (28-40 weeks old, Japan SLC, Inc., Japan) were anesthetized with sodium pentobarbital (50 mg/kg, i.p.). The left femoral artery was cannulated with a polyethylene catheter filled with saline comprising heparin (200 U/mL). The catheter was exteriorized at the back of the neck and each SHR was individually housed in a cage and left two or four days to recover. The mean blood pressure (MBP) was obtained from the systemic blood pressure which was monitored from the femoral artery using a pressure transducer connected to a polygraph system (Nihon Kohden Corporation). The heart rate was measured from the blood pressure pulse intervals. The rats which had MBP over 150 mmHg were used for the experiment. When the blood pressure had stabilized, vehicle (0.5 w/v % methylcellulose) or compounds were orally administered. All compounds were suspended in 0.5 w/v % methylcellulose and orally administered at a volume of 2 mL/kg. The MBP was measured during 24 hours after the administration.

`CCCc1c(Cc2ccc(-c3ccccc3-c3noc(=O)[nH]3)cc2)c(=O)n([C@H]2CC[C@@]3(CCC(CO)O3)CC2)c2ncnn12` (stereo partly drawn) [Example 392, 4-[(5R,8R)-2-(hydroxymethyl)-1-oxaspiro[4.5]dec-8-yl]-6-{[2′-(5-oxo-4,5-dihydro-1,2,4-oxadiazol-3-yl)biphenyl-4-yl]methyl}-7-propyl[1,2,4]triazolo[1,5-a]pyrimidin-5(4H)-one] showed an IC50 at human AT1 receptor of 2.2 nM. At human PPARγ, the activation at 1 µM stood at 20%.

For `CCCc1c(Cc2ccc(-c3ccccc3-c3noc(=O)[nH]3)cc2)c(=O)n([C@H]2CC[C@H](OCC(C)(C)O)CC2)c2ccnn12` [Example 415, 4-[trans-4-(2-hydroxy-2-methylpropoxy)cyclohexyl]-6-{[2′-(5-oxo-4,5-dihydro-1,2,4-oxadiazol-3-yl)biphenyl-4-yl]methyl}-7-propylpyrazolo[1,5-a]pyrimidin-5(4H)-one potassium salt], the “Maximum MBP reduction (mmHg)” value in the assay on Male SHRs is 63 mmHg. On human AT1 receptor, `CCCc1c(Cc2ccc(-c3ccccc3-c3noc(=O)[nH]3)cc2)c(=O)n([C@H]2CC[C@H](OCC(C)=O)CC2)c2ccnn12` [Example 420, 6-{[2′-(5-oxo-4,5-dihydro-1,2,4-oxadiazol-3-yl)biphenyl-4-yl]methyl}-4-[trans-4-(2-oxopropoxy)cyclohexyl]-7-propylpyrazolo[1,5-a]pyrimidin-5(4H)-one] came in with an IC50 of 2.2 nM. Moreover, the activation at 1 µM at human PPARγ was 21%. For `CCCc1c(Cc2ccc(-c3ccccc3-c3noc(=O)[nH]3)cc2)c(=O)n([C@H]2CC[C@H](OCC3(O)CC3)CC2)c2ccnn12` [Example 427, 4-{trans-4-[(1-hydroxycyclopropyl)methoxy]cyclohexyl}-6-{[2′-(5-oxo-4,5-dihydro-1,2,4-oxadiazol-3-yl)biphenyl-4-yl]methyl}-7-propylpyrazolo[1,5-a]pyrimidin-5(4H)-one] the same measures were 1.9 nM and 18%. With `CCCCc1c(Cc2ccc(-c3ccccc3-c3noc(=O)[nH]3)cc2)c(=O)n([C@H]2CC[C@H](OCC(C)(C)O)CC2)c2ccnn12` [Example 434, 7-butyl-4-[trans-4-(2-hydroxy-2-methylpropoxy)cyclohexyl]-6-{[2′-(5-oxo-4,5-dihydro-1,2,4-oxadiazol-3-yl)biphenyl-4-yl]methyl}pyrazolo[1,5-a]pyrimidin-5(4H)-one], the 50% inhibitory concentration (IC50) at human AT1 receptor came out at 2.1 nM. In addition, the activation at 1 µM on human PPARγ amounted to 25%. For `CCCc1c(Cc2ccc(-c3ccccc3-c3noc(=O)[nH]3)cc2F)c(=O)n([C@H]2CC[C@H](OCC(C)(C)O)CC2)c2ccnn12` [Example 435, 6-{[3-fluoro-2′-(5-oxo-4,5-dihydro-1,2,4-oxadiazol-3-yl)biphenyl-4-yl]methyl}-4-[trans-4-(2-hydroxy-2-methylpropoxy)cyclohexyl]-7-propylpyrazolo[1,5-a]pyrimidin-5(4H)-one] the same measures were 1.7 nM and 30%. As to `CCCc1c(Cc2ccc(-c3ccccc3-c3noc(=O)[nH]3)cc2)c(=O)n([C@H]2CC[C@H](OCC(C)(C)O)CC2)c2c(F)cnn12` [Example 442, 3-fluoro-4-[trans-4-(2-hydroxy-2-methylpropoxy)cyclohexyl]-6-{[2′-(5-oxo-4,5-dihydro-1,2,4-oxadiazol-3-yl)biphenyl-4-yl]methyl}-7-propylpyrazolo[1,5-a]pyrimidin-5(4H)-one], the IC50 on human AT1 receptor was 2 nM. Besides, on human PPARγ, the activation at 1 µM is 22%. For `CCCCc1c(Cc2ccc(-c3ccccc3-c3nnn[nH]3)cc2F)c(=O)n([C@H]2CC[C@H](OCC(C)(C)O)CC2)c2ncnn12` [Example 457, 7-butyl-6-{[3-fluoro-2′-(1H-tetrazol-5-yl)biphenyl-4-yl]methyl}-4-[trans-4-(2-hydroxy-2-methylpropoxy)cyclohexyl][1,2,4]triazolo[1,5-a]pyrimidin-5(4H)-one] the same measures were 1.8 nM and 19%.

For “(−)-6-{[3-fluoro-2′-(5-oxo-4,5-dihydro-1,2,4-oxadiazol-3-yl)biphenyl-4-yl]methyl}-4-[trans-4-(2-hydroxy-1,2-dimethylpropoxy)cyclohexyl]-7-propyl[1,2,4]triazolo[1,5-a]pyrimidin-5(4H)-one potassium salt (retention time: long) [Example 459]”, the “Maximum MBP reduction (mmHg)” value with Male SHRs came out at 64 mmHg.
